Experimental data: publication PMC5378956, “Inhibition of delta-secretase improves cognitive functions in mouse models of Alzheimer's disease” (Nature Communications, 2017)

Assays:
[1] = Redox potential, horseradish peroxidase-phenol red assay (H2O2 production)
[2] = Serum and brain level after chronic oral dosing; conditions: tau P301S, mouse, in vivo, oral 10 mg kg-1d-1, 3 months, 1 hour after last dose
[3] = Single-dose pharmacokinetics, IV and oral; conditions: for serum concentration: all three animals
Source text: Two months old CD-1 male mice were orally
serum was collected at indicated time points with each group of 3 mice (mean ± s.d.).

[4] = system: tau P301S mice
Description: Only 2-month-old male mice were used in the present study. Sample size was determined by Power and Precision (Biostat). The animals were randomly allocated to experimental groups. Investigators were blinded to the group allocation during the animal experiments. […] The protocol was reviewed and approved by the Emory Institutional Animal Care and Use Committee. Rabbit anti-tau N368 (1:1,000), and anti-APP585N (1:500) antibody, which specifically recognize the δ-secretase-derived tau and APP fragments respectively, were described previously. […] TUNEL in situ cell death detection kit was from Roche (Indianapolis, IN). […] All chemicals not included above were purchased from Sigma-Aldrich (St. Louis, MO). Recombinant δ-secretase was obtained from Sino Biological (Beijing, China), recombinant cathepsin-S was obtained from Athens Research and Technology (Athens, GA), recombinant caspase-3 and caspase-8 were obtained from Millipore (Billerica, MA).
Synaptic density was determined by electron microscopy as described previously. After deep anaesthesia, mice were perfused transcardially with 2% glutaraldehyde and 3% paraformaldehyde in PBS. Hippocampal slices were post-fixed in cold 1% OsO4 for 1 h. Samples were prepared and examined using standard procedures. Ultrathin sections (90 nm) were stained with uranyl acetate and lead acetate and viewed at 100 kV in a JEOL 200CX electron microscope. Four mice were examined in each group. Synapses were identified by the presence of synaptic vesicles and post synaptic densities.
Electrophysiological analysis was carried out as described previously. […] The hippocampi were cut into 400-μm thick transverse slices with a vibratome. A 0.1 MΩ tungsten monopolar electrode was used to stimulate the Schaffer collaterals. The field excitatory post synaptic potentials (fEPSPs) were recorded in CA1 stratum radiatum by a glass microelectrode filled with a-CSF with resistance of 3–4 MΩ. The stimulation output (Master-8; AMPI, Jerusalem) was controlled by the trigger function of an EPC9 amplifier (HEKA Elektronik, Lambrecht, Germany). fEPSPs were recorded under current-clamp mode. Data were filtered at 3 kHz and digitized at sampling rates of 20 kHz using Pulse software (HEKA Elektronik). The stimulus intensity (0.1 ms duration, 10–30 μA) was set to evoke 40% of the maximum f-EPSP and the test pulse was applied at a rate of 0.033 Hz. LTP of fEPSPs was induced by three theta-burst-stimulation (TBS; 4 pulses at 100 Hz, repeated three times with a 200-ms interval). Paired-pulse facilitation (PPF) was examined by applying pairs of pulses, which were separated by 20–500 ms intervals. The magnitudes of LTP are expressed as the mean percentage of baseline fEPSP initial slope.
The mice were trained in a round, water-filled tub (52′ diameter) in an environment rich with extra maze cues. An invisible escape platform was located in a fixed spatial location 1 cm below the water surface independent of a subject's start position on a particular trial. In this manner, subjects needed to utilize extra maze cues to determine the platform's location. At the beginning of each trial, the mouse was placed in the water maze with their paws touching the wall from 1 of 4 different starting positions (N, S, E, W). […] On reaching the invisible escape platform, subjects were left on it for an additional 5 s to allow for survey of the spatial cues in the environment to guide future navigation to the platform. After each trial, subjects were dried and kept in a dry plastic holding cage filled with paper towels to allow the subjects to dry off. […] The percentage of time that was spent in the quadrant, which previously contained the escape platform during task acquisition, was measured over 60 s. All trials were analysed for latency, swim path length and swim speed by means of MazeScan (Clever Sys, Inc.).
The solution was changed each day.

[5] = system: 5XFAD mice; conditions: 5 or 10 mg kg-1 oral; 1, 2, 4 h
[6] = system: primary neurons; assay: LDH release of primary neurons after OGD; assay type: cell-based, mouse
[7] = system: tau P301S mice; assay: Chronic toxicity after 3 months oral gavage; assay type: in vivo, mouse
Source text: […]. […] […].

[8] = male, CD-1, mouse, in vivo, iv, 2 mg kg-1
[9] = male, CD-1, mouse, in vivo, po, 10 mg kg-1
[10] = male, CD-1, mouse, serum, iv, 2 mg/kg
[11] = male, CD-1, mouse, serum, po, 10 mg/kg

For `Nc1ccc(N2CCOCC2)c2nonc12` [compound 11, 7-(morpholin-4-yl)-2,1,3-benzoxadiazol-4-amine], the “production of H2O2 (redox potential)” value [1] was “none of them produced H2O2”, the concentration at 1 h ([2]; 10 mg kg-1d-1, Compound #11 in the serum, Sample #1) was 184 ng/mL and the concentration at 1 h ([2]; 10 mg kg-1d-1, Compound #11 in the serum, Sample #2) was 59 ng/mL. The concentration at 1 h ([2]; 10 mg kg-1d-1, Concentration in the brain, Sample #1) was 206 ng/g, the concentration at 1 h ([2]; 10 mg kg-1d-1, Concentration in the brain, Sample #2) was 87 ng/g and the serum concentration ([3]; IV 2 mg kg-1, 8.00 h) was “BLQ”. The serum concentration ([3]; IV 2 mg kg-1, 24.00 h) was “BLQ”, the concentration at 0.08 h [3, 8] was 230 ng/mL and the concentration at 0.5 h [3, 8] was 13.3 ng/mL. The concentration at 1 h [3, 8] was 3.5 ng/mL, the concentration at 2 h [3, 8] was 3.8 ng/mL and the concentration at 4 h [3, 8] was 3.1 ng/mL. For the same compound, the concentration at 0.5 h [3, 9] was 81.1 ng/mL, the concentration at 1 h [3, 9] was 27.2 ng/mL and the concentration at 2 h [3, 9] was 13.3 ng/mL. It also gave a concentration at 4 h [3, 9] of 11.6 ng/mL, a concentration at 8 h [3, 9] of 3.8 ng/mL and an AUC(0-inf) [3, 10] of 61.2 ng·h/mL. For the same compound, the AUC(0-t) [3, 10] was 61.1 ng·h/mL, the Cmax [3, 10] was 230 ng/mL and the MRT last [3, 10] was 18 min. For the same compound, the Vd [3, 10] was 10.8 L/kg, the clearance [3, 10] was 554 mL/min/kg and the half-life [3, 10] was 13.2 min. It also gave a bioavailability ([3]; male, CD-1, mouse, serum, oral, 10 mg kg-1, F (oral bioavailability), mean, oral 10 mg kg-1 vs IV 2 mg kg-1) of 69%, an AUC(0-inf) [3, 11] of 223 ng·h/mL and an AUC(0-t) [3, 11] of 211 ng·h/mL. For the same compound, the CL/F [3, 11] was 824 mL/min/kg, the Cmax [3, 11] was 447 ng/mL and the MRT last [3, 11] was 69 min. For the same compound, the Tmax [3, 11] was 15 min, the Vd/F [3, 11] was 134 L/kg and the half-life [3, 11] was 139 min. The serum concentration ([3]; oral 10 mg kg-1, 24.00 h) was “BLQ”, the “F (oral bioavailability), mean” value ([3]; oral 10 mg kg-1 vs IV 2 mg kg-1) was roughly 70% and the “phosphorylation, aggregation and oligomerization of tau” value ([4]; 10 mg kg−1 d−1 oral, 3 months) was “attenuated”. The “cleavage of mouse and human tau after N368” value ([4]; 10 mg kg−1 d−1 oral, 3 months, Western blot) was “decreased the cleavage”, the “Morris water maze latency to platform” value ([4]; five acquisition days) was “decreased latency to platform” and the “percentage of AT8- and AT100-positive neurons” value ([4]; hippocampus and cortex) was “decreased”. For the same compound, the “percentage of neurons positive of tau N368” value ([4]; hippocampus and cortex, immunohistochemistry) was “decreased”, the LTP amplitude ([4]; mouse, in vivo) was “significantly elevated the LTP amplitude” and the “behavioural deficits in probe trial (time in target quadrant)” value ([4]; mouse, in vivo) was “ameliorated”. For the same compound, the “dendritic spine density (Golgi stain)” value ([4]; mouse, in vivo) was “increased the density of spines”, the swim speed ([4]; mouse, in vivo) was “not affected” and the “concentrations of IL-1β and TNFα” value ([4]; tau P301S mice) was “reduced the concentrations of inflammatory cytokines IL-1β and TNFα”. The “activity of δ-secretase in the brain” value ([4]; wild-type and tau P301S mice, 10 mg kg−1 d−1 oral, 3 months) was “significantly inhibited”, the “concentrations of Aβ in plasma and brain after single dose” value [5] was “time- and dose-dependently decreased” and the “OGD-induced cell toxicity in neurons from 5XFAD or tau P301S mice” value ([6]; cultured neurons from 5XFAD mice or tau P301S mice) was “attenuated OGD-induced cell toxicity”. The “neuronal injury induced by OGD in δ-secretase knockout neurons” value ([6]; neurons from δ-secretase knockout mice) was “did not further protect”, the “neuronal injury (LDH in medium) induced by OGD” value ([6]; wild-type neurons) was “attenuated neuronal injury” and the “complete blood count, renal and liver function tests overall” value ([7]; 10 mg kg−1 d−1, 3 months) was “all parameters were comparable with the vehicle-treated mice”. The “hematoxylin and eosin staining of major organs” value ([7]; 10 mg kg−1 d−1, 3 months) was “no major differences between vehicle-treated and drug-treated animals”, the systemic toxicity ([7]; 10 mg kg−1 d−1, 3 months) was “does not exhibit systemic toxicity” and the “weight of major organs (heart, liver, spleen, brain, kidney)” value ([7]; 10 mg kg−1 d−1, 3 months) was “not changed”. For the same compound, the body weight ([7]; 10 mg kg−1 d−1 oral gavage, 3 months) was “no significant change in body weight”, the ALB ([7]; 10 mg kg−1 d−1 oral, 3 months) was 3.57 ± 0.06 g/dL and the ALP ([7]; 10 mg kg−1 d−1 oral, 3 months) was 35.25 ± 28.48 U L-1. It also gave an ALT ([7]; 10 mg kg−1 d−1 oral, 3 months) of 64.25 ± 34.60 U L-1, a BUN ([7]; 10 mg kg−1 d−1 oral, 3 months) of 26.75 ± 3.30 mg/dL and a Hemoglobin ([7]; 10 mg kg−1 d−1 oral, 3 months) of 12.7 ± 0.94 g/dL. For the same compound, the MCH ([7]; 10 mg kg−1 d−1 oral, 3 months) was 17.53 ± 3.42 pg, the MCHC ([7]; 10 mg kg−1 d−1 oral, 3 months) was 40.8 ± 5.07% and the Red blood cell ([7]; 10 mg kg−1 d−1 oral, 3 months) was 7.38 ± 1.15 X1012 l-1. The TBIL ([7]; 10 mg kg−1 d−1 oral, 3 months) was 0.15 ± 0.17 mg/dL, the White blood cell ([7]; 10 mg kg−1 d−1 oral, 3 months) was 1.37 ± 0.08 X109 l-1 and the platelet ([7]; 10 mg kg−1 d−1 oral, 3 months) was 491.26 ± 69.8 X109 l-1.
